For this assay, the system named is LMP1 expression in Kem I cells. Description: microbe, parasite or virus in culture. It is filed as cell-based, EBV. Particulars: for Average LMP1 Fold Increase / Replicate 1-LMP1 Fold Increase / Replicate 2-LMP1 Fold Increase: Kem I cells, 48 hours; for Average LMP1 Fold Increase: average of replicates 1 and 2; for Replicate 1-LMP1 Fold Increase / Replicate 2-LMP1 Fold Increase: fold change in LMP1 transcript vs vehicle; for fold induction at 2.5 µM / fold induction at 1 µM: human gammaherpesvirus 4, 48 h.

Setting [1] is: read-out: Average LMP1 Fold Increase, Kem I cells, 2.5 uM, 48 hours, average of replicates 1 and 2.
Where [2] appears, read: read-out: Replicate 1-LMP1 Fold Increase, Kem I cells, 2.5 uM, 48 hours, fold change in LMP1 transcript vs vehicle.
[3] abbreviates: read-out: Replicate 2-LMP1 Fold Increase, Kem I cells, 2.5 uM, 48 hours, fold change in LMP1 transcript vs vehicle.

Structures can show the parent of a compound that is named as a salt. Where two headings read alike, the source gives them in different places.

As to `COc1ccc(C[C@@H](C)NC[C@H](O)c2ccc(O)c(NC=O)c2)cc1.COc1ccc(C[C@@H](C)NC[C@H](O)c2ccc(O)c(NC=O)c2)cc1.O=C(O)/C=C/C(=O)O` [Formoterol Hemifumarate], where the note is “2.5 uM”, the “Average LMP1 Fold Increase” value is 1.83, the “Replicate 1-LMP1 Fold Increase” value stood at 1.71 and the “Replicate 2-LMP1 Fold Increase” value amounted to 1.96.
For the molecule `C=C[C@@]1(C)CC(=O)[C@]2(O)[C@@]3(C)[C@@H](O)CCC(C)(C)[C@@H]3[C@H](O)[C@H](OC(C)=O)[C@@]2(C)O1` [Forskolin], the fold induction at 2.5 µM turned out to be 1.25 under setting [1], 1.39 under setting [2] and 1.11 under setting [3].
Take `COc1cc(Nc2ncc(F)c(Nc3ccc4c(n3)N(COP(=O)(O)O)C(=O)C(C)(C)O4)n2)cc(OC)c1OC` [Fostamatinib (R788)]: under “2.5 uM”, the “Average LMP1 Fold Increase” value turned out to be 0.67, the “Replicate 1-LMP1 Fold Increase” value is given as 0.24 and the “Replicate 2-LMP1 Fold Increase” value was 1.11.
As for `C[C@]12CC[C@@H]3c4ccc(O)cc4C[C@@H](CCCCCCCCC[S+]([O-])CCCC(F)(F)C(F)(F)F)[C@H]3[C@@H]1CC[C@@H]2O` (stereo partly drawn) [Fulvestrant], the fold induction at 2.5 µM under setting [1] was 0.17, the fold induction at 2.5 µM under setting [2] turned out to be 0.16 and the fold induction at 2.5 µM under setting [3] is 0.18.
Consider `Cc1nc(-c2cn3c(n2)-c2ccc(-c4cnn(C(C)(C)C(N)=O)c4)cc2OCC3)n(C(C)C)n1` [GDC-0032], for which, under “1 uM”, the “Average LMP1 Fold Increase” value is 1.23, the “Replicate 1-LMP1 Fold Increase” value was found to be 1.86 and the “Replicate 2-LMP1 Fold Increase” value came out at 0.59.
For `CC(C)NC[C@@H](C(=O)N1CCN(c2ncnc3c2[C@H](C)C[C@H]3O)CC1)c1ccc(Cl)cc1` [GDC-0068], for the setting “2.5 uM”, the “Average LMP1 Fold Increase” value was 0.27, the “Replicate 1-LMP1 Fold Increase” value came to 0.27 and the “Replicate 2-LMP1 Fold Increase” value worked out at 0.27.
Turning to `CN[C@@H](C)C(=O)N[C@H](C(=O)N1CCC[C@H]1C(=O)Nc1snnc1-c1ccccc1)C1CCCCC1` [GDC-0152], for the setting “2.5 uM”, the “Average LMP1 Fold Increase” value was determined as 0.68, the “Replicate 1-LMP1 Fold Increase” value is reported as 0.76 and the “Replicate 2-LMP1 Fold Increase” value was 0.59.
With `CS(=O)(=O)N1CCN(Cc2cc3nc(-c4cccc5[nH]ncc45)nc(N4CCOCC4)c3s2)CC1` [GDC-0941], where the note is “2.5 uM”, the “Average LMP1 Fold Increase” value is recorded as 0.92, the “Replicate 1-LMP1 Fold Increase” value came out at 0.75 and the “Replicate 2-LMP1 Fold Increase” value is listed as 1.09.
Taken in the same sequence, the figures for `NC(=O)c1cccc(-c2cc(Nc3ccc(OC(F)(F)F)cc3)ncn2)c1` [GNF-2] were 1.06, 0.21 and 1.91.
For `CC1=C(C(=O)Nc2cc3cn[nH]c3cc2F)C(c2ccc(C(F)(F)F)cc2)CC(=O)N1` (stereo not drawn) [GSK429286A], in that order: 0.57, 0.60 and 0.54.
Take `C[C@@H](Oc1cc(-n2cnc3ccc(CN4CCN(C)CC4)cc32)sc1C(N)=O)c1ccccc1C(F)(F)F` [GSK461364]: under “2.5 uM”, the “Average LMP1 Fold Increase” value turned out to be 1.62, the “Replicate 1-LMP1 Fold Increase” value is listed as 1.73 and the “Replicate 2-LMP1 Fold Increase” value was 1.50.
Taken in the same sequence, the figures for `CCn1c(-c2nonc2N)nc2c(C#CC(C)(C)O)ncc(OC[C@H]3CCCNC3)c21` [GSK690693] were 0.63, 0.85 and 0.41.
For the molecule `CC(C)c1noc(N2CCC(COc3ccc(-c4ccc(S(C)(=O)=O)cc4)nc3)CC2)n1` [GSK1292263], where the note is “2.5 uM”, the “Average LMP1 Fold Increase” value is 0.27, the “Replicate 1-LMP1 Fold Increase” value came to 0.20 and the “Replicate 2-LMP1 Fold Increase” value turned out to be 0.34.
For `CCc1cc(Nc2nccc(-c3c(-c4ccc(OC)c(C(=O)Nc5c(F)cccc5F)c4)nc4ccccn34)n2)c(OC)cc1N1CCC(N2CCN(S(C)(=O)=O)CC2)CC1` [GSK1904529A], in that order: 0.20, 0.18 and 0.23.
In the case of `Cc1cccc(CC(=O)N2CCc3c2ccc(-c2cn(C)c4ncnc(N)c24)c3F)n1` [GSK2656157], where the note is “2.5 uM”, the “Average LMP1 Fold Increase” value is listed as 0.71, the “Replicate 1-LMP1 Fold Increase” value turned out to be 0.58 and the “Replicate 2-LMP1 Fold Increase” value worked out at 0.84.
Regarding `CCOC(=O)CCNc1cc(N2CCc3ccccc3CC2)nc(-c2ccccn2)n1.Cl` [GSK J4 HCl], under “2.5 uM”, the “Average LMP1 Fold Increase” value came out at 32.34, the “Replicate 1-LMP1 Fold Increase” value was 48.53 and the “Replicate 2-LMP1 Fold Increase” value worked out at 16.15.
Taken in the same sequence, the figures for `Cc1cc(SCc2sc(-c3ccc(C(F)(F)F)c(F)c3)nc2C)ccc1OCC(=O)O` [GW0742] were 0.76, 0.53 and 0.99.
For `COc1ccc(COc2ccc(Cc3cnc(N)nc3N)cc2OC)cc1` [GW2580], in that order: 0.49, 0.50 and 0.48.
For `Cl.O=C(O)Cc1cccc(OCCCN(Cc2cccc(C(F)(F)F)c2Cl)CC(c2ccccc2)c2ccccc2)c1` [GW3965 HCl], in that order: 0.27, 0.20 and 0.35.
As to `CC(C)c1onc(-c2c(Cl)cccc2Cl)c1COc1ccc(/C=C/c2cccc(C(=O)O)c2)c(Cl)c1` [GW4064], for the setting “2.5 uM”, the “Average LMP1 Fold Increase” value was found to be 0.72, the “Replicate 1-LMP1 Fold Increase” value came out at 0.94 and the “Replicate 2-LMP1 Fold Increase” value was 0.50.
For `O=C(O)CCc1ccc(NCc2cccc(Oc3ccccc3)c2)cc1` [GW9508], in that order: 0.48, 0.52 and 0.45.
As for `O=C(Nc1ccccc1)c1cc([N+](=O)[O-])ccc1Cl` [GW9662], for the setting “2.5 uM”, the “Average LMP1 Fold Increase” value came out at 0.58, the “Replicate 1-LMP1 Fold Increase” value was determined as 0.26 and the “Replicate 2-LMP1 Fold Increase” value was determined as 0.89.
Taken in the same sequence, the figures for `Cn1cc(/C=C2\C(=O)Nc3cccnc32)c2ccccc21` [GW441756] were 0.80, 0.70 and 0.89.
Consider `CC(C)c1cc(-c2n[nH]c(=O)n2-c2ccc3c(ccn3C)c2)c(O)cc1O` [Ganetespib], for which the fold induction at 1 µM (read-out: Average LMP1 Fold Increase, Kem I cells, 1 uM, 48 hours, average of replicates 1 and 2) worked out at 23.4; the fold induction at 1 µM (read-out: Replicate 1-LMP1 Fold Increase, Kem I cells, 1 uM, 48 hours, fold change in LMP1 transcript vs vehicle) came out at 8.07; the fold induction at 1 µM (read-out: Replicate 2-LMP1 Fold Increase, Kem I cells, 1 uM, 48 hours, fold change in LMP1 transcript vs vehicle) is 38.8.
On to `C[C@@H]1C(=O)O[C@H]2C[C@@]34[C@H]5C[C@@H](C(C)(C)C)[C@]36[C@@H](OC(=O)[C@@H]6O)O[C@@]4(C(=O)O5)[C@]21O` [Ginkgolide A], for which, under “2.5 uM”, the “Average LMP1 Fold Increase” value amounted to 0.91, the “Replicate 1-LMP1 Fold Increase” value is 1.33 and the “Replicate 2-LMP1 Fold Increase” value came to 0.49.
Regarding `CC1C(=O)OC2C(O)C34C5CC(C(C)(C)C)C36C(OC(=O)C6O)OC4(C(=O)O5)C12O` (stereo not drawn) [Ginkgolide B], for the setting “2.5 uM”, the “Average LMP1 Fold Increase” value was 0.76, the “Replicate 1-LMP1 Fold Increase” value is given as 1.04 and the “Replicate 2-LMP1 Fold Increase” value was found to be 0.49.
`Cc1ccc(S(=O)(=O)NC(=O)NN2CC3CCCC3C2)cc1` (stereo not drawn) [Gliclazide]: the fold induction at 2.5 µM is, setting by setting: under setting [1], 0.73; under setting [2], 0.98; under setting [3], 0.49.
Taken in the same sequence, the figures for `COc1ccc2c(c1)C(=O)N(CCc1ccc(S(=O)(=O)NC(=O)NC3CCCCC3)cc1)C(=O)C2(C)C` [Gliquidone] were 0.77, 0.81 and 0.73.
Consider `COc1ccc2c(c1)c(C1=C(c3c[nH]c4ccccc34)C(=O)NC1=O)cn2CCCN(C)C` [Go 6983], for which, for the setting “2.5 uM”, the “Average LMP1 Fold Increase” value was 0.34, the “Replicate 1-LMP1 Fold Increase” value was 0.22 and the “Replicate 2-LMP1 Fold Increase” value is 0.45.
`CN1C2CCCC1CC(NC(=O)c1nn(C)c3ccccc13)C2` (stereo not drawn) [Granisetron HCl]: the fold induction at 2.5 µM under setting [1] stood at 0.25, the fold induction at 2.5 µM under setting [2] is 0.25 and the fold induction at 2.5 µM under setting [3] came out at 0.24.
With `Cl.Cl.O=S(=O)(NCCNC/C=C/c1ccc(Br)cc1)c1cccc2cnccc12` [H 89 2HCl], where the note is “2.5 uM”, the “Average LMP1 Fold Increase” value is recorded as 0.68, the “Replicate 1-LMP1 Fold Increase” value was 0.54 and the “Replicate 2-LMP1 Fold Increase” value is 0.82.
For `CC(C)c1ccc(NC(=O)Cn2cnc3c2c(=O)n(C)c(=O)n3C)cc1` [HC-030031], in that order: 0.28, 0.32 and 0.24.
For `O=C1[C@H](Cc2ccc(O)cc2)N2C(=O)CCN(C(=O)NCc3ccccc3)[C@H]2CN1Cc1cccc2ccccc12` [ICG-001], in that order: 1.04, 1.17 and 0.92.
As to `O=C(c1ccc(Nc2nccc(-c3cc4ccccc4s3)n2)cc1)N1CCC(N2CCCC2)CC1` [IKK-16 (IKK Inhibitor VII)], under “2.5 uM”, the “Average LMP1 Fold Increase” value was 0.30, the “Replicate 1-LMP1 Fold Increase” value is listed as 0.26 and the “Replicate 2-LMP1 Fold Increase” value was 0.35.
For the molecule `O=C(Nc1cc(C(F)(F)F)cc(C(F)(F)F)c1)c1cc(Cl)ccc1O` [IMD 0354], the fold induction at 2.5 µM under setting [1] was 0.62, the fold induction at 2.5 µM under setting [2] worked out at 0.74 and the fold induction at 2.5 µM under setting [3] stood at 0.5.

These data come from US20230053688A1, “METHODS TO ALTER LATENCY IN EBV+ MALIGNANCIES” (Cornell University, priority 2020, published 2023).
